Data as given in US20080161232A1, “C5a Receptor Antagonist” (JERINI AG, priority 2005, published 2008).
Starred links: 1 amine or outer side, 2 acyl side, 3 side chain; linkers in the order of their positions; H or OH if unused. Positions of bridges follow the written chain, without caps; N, C: chain ends. Non-standard residues stand in square brackets, D forms with d. Residues, ends and D or L forms follow the SMILES beside them. ξ: configuration not given here. *: point of attachment. Phe(4-F) = N[C@@H](Cc1ccc(F)cc1)C(=O)O; X5 = CCN(CC)CCC[C@H](N[*:1])C(=O)[*:2]; 1Nal = N[C@@H](Cc1cccc2ccccc12)C(=O)O; Bta = N[C@@H](Cc1csc2ccccc12)C(=O)O; Hyp = O=C(O)[C@@H]1C[C@@H](O)CN1; d(hLeu) = CC(C)CC[C@@H](N)C(=O)O; ξNip = O=C(C1CCCN([*:1])C1)[*:2]; 2Thi = N[C@@H](Cc1cccs1)C(=O)O; dCha = N[C@H](CC1CCCCC1)C(=O)O; NMeA = CN[C@@H](C)C(=O)O; Nle = CCCC[C@H](N)C(=O)O; Orn = NCCC[C@H](N)C(=O)O; Aze = O=C(O)[C@@H]1CCN1; Dab = NCC[C@H](N)C(=O)O; Acm = CC(=O)NC*

These compounds were tested against T1, human C5aR(CD88) (Homo sapiens, UniProt P21730) (assay: Determination of the IC50 value in an enzyme release assay (functional assay, antagonistic activity)). Details: antagonistic activity; IC50 group in enzyme release assay, RBL cells expressing human C5aR(CD88); read-out: activity (group).
T1 construct: expressed in transfected cells; host or cells: rat basophilic leukemia cells (RBL)
T1 sequence (P21730 1-350): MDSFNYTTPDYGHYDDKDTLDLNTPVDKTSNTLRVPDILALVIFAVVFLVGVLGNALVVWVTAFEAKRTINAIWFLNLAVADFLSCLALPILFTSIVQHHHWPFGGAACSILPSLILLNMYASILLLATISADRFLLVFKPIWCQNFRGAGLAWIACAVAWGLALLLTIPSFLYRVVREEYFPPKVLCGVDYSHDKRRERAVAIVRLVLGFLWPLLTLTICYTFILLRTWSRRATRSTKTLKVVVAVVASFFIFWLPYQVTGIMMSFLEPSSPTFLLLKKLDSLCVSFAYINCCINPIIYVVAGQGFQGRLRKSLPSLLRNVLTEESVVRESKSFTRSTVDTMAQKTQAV
Type: cell-based

Structure (SMILES) | IC50 [nM]
CCN(CC)CCC[C@H](NC(=O)[C@H](Cc1ccccc1)NC(C)=O)C(=O)N1CCC[C@H]1C(=O)N[C@H](CC1CCCCC1)C(=O)N[C@@H](Cc1csc2ccccc12)C(=O)N[C@@H](Cc1ccccc1)C(N)=O [Compound 233, Ac-Phe-OrE-Pro-cha-Bta-Phe-NH2] (Ac-F[X5]P[dCha][Bta]F-NH2) | 50 to 200
CC(=O)N[C@@H](Cc1ccccc1)C(=O)N[C@@H](CCCN)C(=O)N1CCC[C@H]1C(=O)N[C@H](CCC(C)C)C(=O)N[C@@H](Cc1cccc2ccccc12)C(=O)N[C@@H](Cc1ccccc1)C(N)=O [Compound 268, Ac-Phe-Orn-Pro-hle-1Ni-Phe-NH2] (Ac-F[Orn]P[d(hLeu)][1Nal]F-NH2) | 20 to 50
CC(=O)N[C@@H](CCN)C(=O)N[C@@H](Cc1ccccc1)C(=O)N[C@@H](CCCN)C(=O)N1CC[C@H]1C(=O)N[C@H](CC1CCCCC1)C(=O)N[C@@H](Cc1csc2ccccc12)C(=O)N[C@@H](Cc1ccccc1)C(N)=O [Compound 141, Ac-Dab-Phe-Orn-Aze-cha-Bta-Phe-NH2] (Ac-[Dab]F[Orn][Aze][dCha][Bta]F-NH2) | 50 to 200
CC(=O)N[C@@H](Cc1ccccc1)C(=O)N[C@H]1CCCNC(=O)[C@H](CCCNC(=N)N)NC(=O)[C@H](Cc2c[nH]c3ccccc23)NC(=O)[C@@H](CC2CCCCC2)NC(=O)[C@H](C)N(C)C1=O [compound 46] (Ac-F[Orn][NMeA][dCha]WR; lactam 2-C) | 20 to 50
CC(=O)N[C@@H](Cc1cccs1)C(=O)N[C@@H](CCCN)C(=O)N1CC[C@H]1C(=O)N[C@H](CC1CCCCC1)C(=O)N[C@@H](Cc1csc2ccccc12)C(=O)N[C@@H](Cc1ccccc1)C(N)=O [Compound 66, Ac-Thi-Orn-Aze-cha-Bta-Phe-NH2] (Ac-[2Thi][Orn][Aze][dCha][Bta]F-NH2) | 10 to 20
CC(=O)NCSC[C@H](NC(=O)[C@H](Cc1ccccc1)NC(C)=O)C(=O)N1CCC[C@H]1C(=O)N[C@H](CC1CCCCC1)C(=O)N[C@@H](Cc1csc2ccccc12)C(=O)N[C@@H](Cc1ccccc1)C(N)=O [Compound 123, Ac-Phe-Cys(Acm)-Pro-cha-Bta-Phe-NH2] (Ac-FC(Acm)P[dCha][Bta]F-NH2) | 200 to 2000
CCCC[C@@H]1NC(=O)[C@H](Cc2c[nH]c3ccccc23)NC(=O)[C@@H](CC2CCCCC2)NC(=O)[C@H](CC(N)=O)NC(=O)[C@@H](NC(=O)[C@H](Cc2ccccc2)NC(C)=O)CCCNC1=O [Compound 173, Ac-Phe-[Orn-Asn-cha-Trp-Nle]] (Ac-F[Orn]N[dCha]W[Nle]; lactam 2-C) | 50 to 200
CCCC[C@@H]1NC(=O)[C@H](Cc2c[nH]c3ccccc23)NC(=O)[C@@H](CCC(C)C)NC(=O)[C@H](CO)NC(=O)[C@@H](NC(=O)[C@H](Cc2ccccc2)NC(C)=O)CCCNC1=O [Compound 202, Ac-Phe-[Orn-Ser-hle-Trp-Nle]] (Ac-F[Orn]S[d(hLeu)]W[Nle]; lactam 2-C) | 50 to 200
CC(=O)N[C@@H](Cc1ccccc1)C(=O)N[C@@H](CCN)C(=O)N1CCC[C@H]1C(=O)N[C@H](CC1CCCCC1)C(=O)N[C@@H](Cc1csc2ccccc12)C(=O)N[C@@H](Cc1ccccc1)C(N)=O [Compound 215, Ac-Phe-Dab-Pro-cha-Bta-Phe-NH2] (Ac-F[Dab]P[dCha][Bta]F-NH2) | 10 to 20
O=C(N[C@@H](Cc1ccccc1)C(=O)N[C@H]1CCCNC(=O)[C@H](Cc2ccccc2)NC(=O)[C@H](Cc2c[nH]c3ccccc23)NC(=O)[C@@H](CC2CCCCC2)NC(=O)[C@@H]2C[C@@H](O)CN2C1=O)C1CCCNC1 (stereo partly drawn) [Compound 332, Fci-[Phe-Orn-Hyp-cha-Trp-Phe]] (ξNip-F[Orn][Hyp][dCha]WF; lactam 2-C) | 50 to 200
CCCC[C@@H]1NC(=O)[C@H](Cc2c[nH]c3ccccc23)NC(=O)[C@@H](CC2CCCCC2)NC(=O)[C@@H]2C[C@@H](O)CN2C(=O)[C@@H](NC(=O)[C@@H](N)Cc2ccccc2)CCCNC1=O [Compound 356, H-Phe-[Orn-Hyp-cha-Trp-Nle]] (H-F[Orn][Hyp][dCha]W[Nle]; lactam 2-C) | 20 to 50
CCCC[C@@H]1NC(=O)[C@H](Cc2ccc(F)cc2)NC(=O)[C@@H](CCC(C)C)NC(=O)[C@@H]2C[C@@H](O)CN2C(=O)[C@@H](NC(=O)[C@@H](N)Cc2ccccc2)CCCCNC1=O [Compound 353, H-Phe-[Lys-Hyp-hle-Pff-Nle]] (H-FK[Hyp][d(hLeu)][Phe(4-F)][Nle]; lactam 2-C) | 50 to 200
CC(=O)NCC(=O)N[C@@H](Cc1ccccc1)C(=O)N[C@@H](CCCN)C(=O)N1CC[C@H]1C(=O)N[C@H](CC1CCCCC1)C(=O)N[C@@H](Cc1csc2ccccc12)C(=O)N[C@@H](Cc1ccccc1)C(N)=O [Compound 136, Ac-Gly-Phe-Orn-Aze-cha-Bta-Phe-NH2] (Ac-GF[Orn][Aze][dCha][Bta]F-NH2) | 20 to 50
